Measured values: patent publication US12600725B2 (Memorial Sloan-Kettering Cancer Center, priority 2013, dated 2026)

Key:
C2C12 cells = assay: Viability of C2C12 cells visualized by light microscopy; format: cell-based, mouse; settings: 24 h
OE19 cells = assay: Cell viability assessment (CellTiter-Glo); format: cell-based
[1] = test system: IGF1R and TGFbeta expressing ovarian cancer cell lines; assay: Apoptosis in ovarian cancer cell lines; format: cell-based
Experimental: Cell cycle and apoptosis assessment. Cell cycle and apoptosis were assessed by flow cytometry after single staining with propidium iodide (PI, BD Pharmingen) or double staining with AnnexinV-FITC (BD Pharmingen) and 7AAD (BD Pharmingen), respectively. Specifically, for cell cycle analysis, cells were washed twice with cold PBS and fixed in 70% ethanol overnight at 4° C. Fixed cells were collected at 1800 rpm for 10 min and stained with PBS containing PI and DNase-free RNase A (Sigma-Aldrich) for 1 h at room temperature in the dark. DNA content was measured by BD LSRII flow cytometer and cell further analyzed using program of cell cycle analysis in FloJo (Ashland, OR). The chicken erythrocyte nuclei singlets (CEN, Biosure) were used as the reference. For apoptosis assessment, live cells were collected, washed twice with cold PBS, resuspended in Binding Buffer and stained with AnnexinV-FITC and 7AAD for 15 min at room temperature in the dark. Signals from FL1 and FL3 channels were collected by MACSQuant analyzer and further analyzed using FloJo. Early apoptosis was defined as AnnexinV+/7AAD−, and late apoptosis was observed as AnnexinV+/7AAD+.

CC(C)NCCCn1c(Sc2cc(Cl)cc(Cl)c2)nc2c(N)ncnc21 [PU-WS13]
toxicity to C2C12 cells (C2C12 cells): not toxic | sensitivity to Grp94 inhibition (OE19 cells): highly susceptible | induction of apoptosis [1]: induces apoptosis
